Six substances from patent publication US8501908B2, “Immunogenic peptides” (priority 2008, dated 2013) can be followed below.

The subject of experiment [1] is PBMCs from healthy donors. Kind of experiment: γ-IFN release ELISPOT, PBMCs of healthy donors after short-term culture with peptides. It counts as cell-based, human. Conditions: triplicate ELISPOT, ± SD.
For experiment [2], the system named is PBMCs from DLBCL patients. Kind of experiment: γ-IFN release ELISPOT, PBMCs of DLBCL patients after short-term culture with peptides. In kind it is cell-based, human. Details: γ-IFN response to peptides: unit not given here. The note with it: for γ-IFN response to peptides: triplicate ELISPOT.
Setting [3] is: Patient 1, De novo DLBCL, DRB1-0102, group Significant response, ± SD.
The mark [4] stands for this setting: Patient 2, De novo DLBCL, DRB1-0101, group Significant response, ± SD.
Setting [5] is: Patient 3, De novo DLBCL, DRB1-0301, group Significant response, ± SD.
The mark [6] stands for this setting: Patient 4, De novo DLBCL, DRB1-0102, group Significant response, ± SD.
Where [7] appears, read: Patient 8, De novo DLBCL, DRB1-1501, group Significant response, ± SD.
Setting [8] is: Patient 9, De novo DLBCL, DRB1-0301, group Significant response, ± SD.
Setting [9] is: Patient 10, De novo DLBCL, DRB1-0101, group No significant response, ± SD.
[10] abbreviates: Patient 12, De novo DLBCL, DRB1-0401, group Significant response, ± SD.
The mark [11] stands for this setting: Patient 15, De novo DLBCL, DRB1-1301, group No significant response, ± SD.
The mark [12] stands for this setting: Patient 17, De novo DLBCL, DRB1-0301, group No significant response, ± SD.
[13] abbreviates: Patient 18, De novo DLBCL, DRB1-0401, group No significant response, ± SD.
Setting [14] is: Patient 19, De novo DLBCL, DRB1-1104, group No significant response, ± SD.
[15] abbreviates: Patient 20, De novo DLBCL, DRB1-1303, group No significant response, ± SD.
Where [16] appears, read: Patient 21, De novo DLBCL, DRB1-0301, group No significant response, ± SD.
Where [17] appears, read: Patient 24, De novo DLBCL, DRB1-1301, group Significant response, ± SD.
Setting [18] is: Patient 28, Trans DLBCL, DRB1-0701, group No significant response, ± SD.
The mark [19] stands for this setting: Patient 37, Trans DLBCL, DRB1-0103, group Significant response, ± SD.
The mark [20] stands for this setting: Patient 48, T-cell rich DLBCL, DRB1-0301, group Significant response, ± SD.
The mark [21] stands for this setting: Patient 61, De novo DLBCL, DRB1-0401, group No significant response, ± SD.

As to “phytohaemagglutinin [PHA, reference compound]”, the “γ-IFN response to peptides” value in experiment [1] (Healthy donor HD 1, DRB1-0102) is listed as 86 ± 14; in experiment [1] (Healthy donor HD 2, DRB1-0401), 66 ± 10; in experiment [1] (Healthy donor HD 3, DRB1-0401), 46 ± 6; in experiment [1] (Healthy donor HD 4, DRB1-0301) it was 74 ± 16; in experiment [1] (Healthy donor HD 5, DRB1-0301), 63 ± 10; in experiment [2] (PBMCs from a DLBCL patient stimulated in culture with PASD1(6) or PASD1(7) peptides, +/− SD), 48 +/− 2. The “γ-IFN response to peptides” value is on record as 98 ± 15 in experiment [2] (setting [3]); 106 ± 18 in experiment [2] (setting [4]); 62 ± 8 in experiment [2] (setting [5]); 98 ± 14 in experiment [2] (setting [6]); 48 ± 4 in experiment [2] (setting [7]); 118 ± 18 in experiment [2] (setting [8]). Further, the “γ-IFN response to peptides” value came to 78 ± 8 in experiment [2] (setting [9]); 72 ± 10 in experiment [2] (setting [10]); 58 ± 6 in experiment [2] (setting [11]); 54 ± 12 in experiment [2] (setting [12]); 62 ± 12 in experiment [2] (setting [13]); 58 ± 14 in experiment [2] (setting [14]). The “γ-IFN response to peptides” value is 52 ± 10 in experiment [2] (setting [15]); 102 ± 10 in experiment [2] (setting [16]); 86 ± 14 in experiment [2] (setting [17]); 45 ± 8 in experiment [2] (setting [18]); 126 ± 22 in experiment [2] (setting [19]); 84 ± 10 in experiment [2] (setting [20]). Besides, the “γ-IFN response to peptides” value in experiment [2] (setting [21]) was 58 ± 10.
As to “AENISSLLGHLPAEIVGKKL (listed as Homo sapiens) [PASD1(8)]”, the “γ-IFN response to peptides” value in experiment [1] (Healthy donor HD 1, DRB1-0102) is listed as 18 ± 2; in experiment [1] (Healthy donor HD 2, DRB1-0401) it was 10 ± 2; in experiment [1] (Healthy donor HD 3, DRB1-0401), 6 ± 2; in experiment [1] (Healthy donor HD 4, DRB1-0301), 10 ± 2; in experiment [1] (Healthy donor HD 5, DRB1-0301), 10 ± 2; in experiment [2] (setting [3]), 32 ± 3. Further, the “γ-IFN response to peptides” value in experiment [2] (setting [4]) is listed as 36 ± 6; in experiment [2] (setting [5]) it was 18 ± 2; in experiment [2] (setting [6]) it was 28 ± 4; in experiment [2] (setting [7]), 20 ± 4; in experiment [2] (setting [8]) it was 12 ± 3; in experiment [2] (setting [9]), 36 ± 4. For the same substance, the “γ-IFN response to peptides” value in experiment [2] (setting [10]) was determined as 24 ± 4; in experiment [2] (setting [11]), 10 ± 1; in experiment [2] (setting [12]), 14 ± 2; in experiment [2] (setting [13]), 20 ± 2; in experiment [2] (setting [14]) it was 24 ± 2; in experiment [2] (setting [15]) it was 18 ± 2. Moreover, the “γ-IFN response to peptides” value in experiment [2] (setting [16]) came out at 14 ± 2; in experiment [2] (setting [17]), 28 ± 4; in experiment [2] (setting [18]) it was 16 ± 2; in experiment [2] (setting [19]), 16 ± 2; in experiment [2] (setting [20]) it was 40 ± 6; in experiment [2] (setting [21]), 12 ± 2.
Regarding “DESFRKYTAFTIPSMNNETP (Human immunodeficiency virus type 1) [HIV-1, control irrelevant peptide from HIV-1 reverse transcriptase used with the TH peptides, reference compound]”, the “γ-IFN response to peptides” value was determined as 8 ± 2 in experiment [1] (Healthy donor HD 1, DRB1-0102); 6 ± 2 in experiment [1] (Healthy donor HD 2, DRB1-0401); 1 ± 1 in experiment [1] (Healthy donor HD 3, DRB1-0401); 10 ± 2 in experiment [1] (Healthy donor HD 4, DRB1-0301); 8 ± 2 in experiment [1] (Healthy donor HD 5, DRB1-0301); 2 ± 1 in experiment [2] (setting [3]). Also, the “γ-IFN response to peptides” value in experiment [2] (setting [4]) is reported as 16 ± 2; in experiment [2] (setting [5]), 8 ± 2; in experiment [2] (setting [6]), 14 ± 2; in experiment [2] (setting [7]), 12 ± 4; in experiment [2] (setting [8]), 4 ± 2; in experiment [2] (setting [9]) it was 16 ± 4. Moreover, the “γ-IFN response to peptides” value in experiment [2] (setting [10]) is recorded as 12 ± 2; in experiment [2] (setting [11]), 14 ± 4; in experiment [2] (setting [12]), 10 ± 2; in experiment [2] (setting [13]), 14 ± 2; in experiment [2] (setting [14]), 12 ± 2; in experiment [2] (setting [15]) it was 10 ± 2. Moreover, the “γ-IFN response to peptides” value in experiment [2] (setting [16]) amounted to 10 ± 2; in experiment [2] (setting [17]), 8 ± 2; in experiment [2] (setting [18]) it was 6 ± 2; in experiment [2] (setting [19]), 16 ± 2; in experiment [2] (setting [20]), 12 ± 2; in experiment [2] (setting [21]) it was 12 ± 2.
As for “NHPVRFLQAQPIVPVQRAAE (listed as Homo sapiens) [PASD1(10)]”, the “γ-IFN response to peptides” value amounted to 10 ± 2 in experiment [1] (Healthy donor HD 1, DRB1-0102); 4 ± 2 in experiment [1] (Healthy donor HD 2, DRB1-0401); 2 ± 1 in experiment [1] (Healthy donor HD 3, DRB1-0401); 18 ± 2 in experiment [1] (Healthy donor HD 4, DRB1-0301); 16 ± 2 in experiment [1] (Healthy donor HD 5, DRB1-0301); 40 ± 2 in experiment [2] (setting [3]). The “γ-IFN response to peptides” value in experiment [2] (setting [4]) came to 40 ± 4; in experiment [2] (setting [5]), 32 ± 2; in experiment [2] (setting [6]), 32 ± 4; in experiment [2] (setting [7]), 18 ± 4; in experiment [2] (setting [8]), 14 ± 2; in experiment [2] (setting [9]) it was 32 ± 2. The “γ-IFN response to peptides” value in experiment [2] (setting [10]) was found to be 32 ± 4; in experiment [2] (setting [11]) it was 18 ± 4; in experiment [2] (setting [12]), 10 ± 4; in experiment [2] (setting [13]) it was 22 ± 2; in experiment [2] (setting [14]), 12 ± 2; in experiment [2] (setting [15]) it was 16 ± 2. The “γ-IFN response to peptides” value in experiment [2] (setting [16]) is reported as 18 ± 2; in experiment [2] (setting [17]), 16 ± 4; in experiment [2] (setting [18]), 10 ± 2; in experiment [2] (setting [19]) it was 34 ± 2; in experiment [2] (setting [20]) it was 38 ± 2; in experiment [2] (setting [21]), 6 ± 2.
As for “ILKEPVHGV [HIV peptide, reference compound]”, in experiment [2] (DLBCL patients (FIG. 5), short term culture, p<0.05), the “TH γ-IFN response to peptides at time of diagnosis and after one year” value is recorded as “No significant response”. Also, the “γ-IFN response to CTL peptides at time of diagnosis and after one year” value in experiment [2] (HLA-A*0201-positive DLBCL patients (12 and 48, FIG. 2a), short term culture, p<0.05) is reported as “No significant response”.
“VGNVCILRTQLLQQLYTSKA (listed as Homo sapiens) [PASD1(9)]”: the “γ-IFN response to peptides” value was found to be 14 ± 2 in experiment [1] (Healthy donor HD 1, DRB1-0102); 1 ± 1 in experiment [1] (Healthy donor HD 2, DRB1-0401); 8 ± 2 in experiment [1] (Healthy donor HD 3, DRB1-0401); 19 ± 2 in experiment [1] (Healthy donor HD 4, DRB1-0301); 18 ± 2 in experiment [1] (Healthy donor HD 5, DRB1-0301); 30 ± 2 in experiment [2] (setting [3]). For the same substance, the “γ-IFN response to peptides” value is reported as 24 ± 2 in experiment [2] (setting [4]); 24 ± 2 in experiment [2] (setting [5]); 18 ± 2 in experiment [2] (setting [6]); 18 ± 2 in experiment [2] (setting [7]); 20 ± 2 in experiment [2] (setting [8]); 10 ± 2 in experiment [2] (setting [9]). Moreover, the “γ-IFN response to peptides” value in experiment [2] (setting [10]) stood at 20 ± 4; in experiment [2] (setting [11]), 8 ± 2; in experiment [2] (setting [12]), 8 ± 2; in experiment [2] (setting [13]) it was 24 ± 2; in experiment [2] (setting [14]), 18 ± 2; in experiment [2] (setting [15]), 8 ± 2. Also, the “γ-IFN response to peptides” value in experiment [2] (setting [16]) turned out to be 16 ± 2; in experiment [2] (setting [17]), 26 ± 4; in experiment [2] (setting [18]) it was 22 ± 4; in experiment [2] (setting [19]), 28 ± 2; in experiment [2] (setting [20]), 26 ± 2; in experiment [2] (setting [21]) it was 16 ± 2.
